From patent publication US9925166B2, “Methods of treating an overweight or obese subject” (Zafgen, Inc., priority 2008, dated 2018)
Where “and” joins values, the source holds several entries; their conditions need not be identical. Equal entries are not always repeated. Where two headings read alike, the source gives them in different places.

Key:
[1] = molecular target: T1, MetAP-2 (Mus musculus, UniProt O08663); assay: ELISA assay of MetAP-2 binding (free MetAP-2) in adipose tissue lysates of dosed diet-induced obese mice; settings: fumagillin orally 3 mg/kg or 10 mg/kg; diet-induced obese mice; FIG. 1
T1 construct: from tissue; host or cells: adipose tissue of diet-induced obese mice
T1 sequence (O08663 whole entry): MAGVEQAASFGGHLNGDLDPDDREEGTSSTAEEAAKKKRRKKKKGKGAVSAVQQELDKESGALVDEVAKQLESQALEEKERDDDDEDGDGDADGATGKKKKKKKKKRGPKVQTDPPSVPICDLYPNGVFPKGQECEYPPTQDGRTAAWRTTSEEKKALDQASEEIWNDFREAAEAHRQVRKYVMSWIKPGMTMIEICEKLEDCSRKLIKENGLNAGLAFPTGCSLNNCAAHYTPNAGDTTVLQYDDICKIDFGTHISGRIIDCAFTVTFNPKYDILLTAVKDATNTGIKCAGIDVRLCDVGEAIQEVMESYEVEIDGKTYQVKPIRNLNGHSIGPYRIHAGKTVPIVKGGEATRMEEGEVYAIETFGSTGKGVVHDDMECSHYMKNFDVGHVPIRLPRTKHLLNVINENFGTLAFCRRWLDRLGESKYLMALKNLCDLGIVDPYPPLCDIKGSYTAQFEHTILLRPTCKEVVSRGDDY
Protocol: Diet-induced obese mice were orally (p.o.) administered fumagillin (3 mg/kg or 10 mg/kg; Medivet), subcutaneously administered (s.c.) TNP-470 (1 mg/kg, 3 mg/kg, 10 mg/kg, or 30 mg/kg; synthesized by standard semi-synthetic processes as described in European Patent EP 0 357 061), or administered a solution of 10% dimethyl sulfoxide (DMSO; control; Sigma-Aldrich). Mice were sacrificed and adipose tissue samples were obtained.
An ELISA assay of MetAP-2 binding was conducted with tissue lysates prepared from the adipose tissue samples. The MetAP-2 ELISA is a quantitative assay to determine the amount of free MetAP-2 in tissue or cell lysates, i.e., MetAP-2 not covalently bound to fumagillin or TNP-470. The assay takes advantage of the fact that biotinylated fumagillin can bind to the catalytic site of the MetAP-2 enzyme only if this site has not already been derivatized by fumagillin or TNP-470. The biotinylated MetAP-2-inhibitor complex was captured on a streptavidin-coated plate and detected with a rabbit anti-MetAP-2 antibody (Zymed Laboratories Inc.). Horseradish peroxidase-conjugated anti-rabbit immunoglobulin G (IgG) was added to detect the MetAP-2 antibody immobilized to the streptavidin-coated plate with its covalently bound biotinylated fumagillin. Tetramethylbenzidine (TMB) substrate was added and the reaction was stopped by addition of sulfuric acid. Analysis was performed by determining absorption at 450 nm. Human recombinant MetAP-2 (R&D Systems), pre-bound to biotinylated fumagillin, was used to generate a standard curve.

[2] = tested on: diet-induced obese mice; assay: Weight loss study in diet-induced obese mice, oral gavage 28 days (Example 2); type: in vivo, C57BL/6NTac mice; settings: for weight loss as a percentage of pre-study weight: 28 days, end of study
Protocol: The mice in this study were not genetically obese, but prior to and during the study, obesity was induced by a high-fat diet. Twelve week-old C57BL/6NTac mice, maintained on a 60% fat diet prior to and during the study, were separated into six groups, eight animals per group.
Fumagillin was administered to four of the diet-induced obese mice groups by oral gavage as a solution in 10% DMSO, at doses of 1 mg/kg/day, 3 mg/kg/day, 10 mg/kg/day and 30 mg/kg/day respectively, for 28 days. A fifth group received 10% DMSO vehicle-only (control) by oral gavage, and the sixth group received neither vehicle nor fumagillin (naïve). Body weight was measured on day 0 (pre-study) and subsequently on day 3, day 8, day 15, day 22, and day 29 of the study. Daily food consumption was also recorded.

[3] = tested on: diet-induced obese mice; assay: 47-day weight and food intake study in diet-induced obese mice (Example 5); type: in vivo, C57BL/6NTac mice; settings: 1 mg/kg/day oral gavage
Protocol: Mice were divided into two groups, a diet-induced obese group and a lean group (control). For the diet-induced obese group, C57BL/6NTac mice maintained prior to and during the study on a diet containing 60% fat on a kilocalorie basis were further divided into two groups, fifteen mice per group. Average body weight of these diet-induced obese mice was 40 g at the start of the study. […] Daily food consumption was also recorded.
Fumagillin was administered to one of the diet-induced obese mice groups by oral gavage as a solution in 10% DMSO, at dose of 1 mg/kg/day, for 47 days. The other diet-induced obese mice group and the lean mice group were not administered anything.

[4] = Plasma concentration after intraduodenal administration (Example 8); type: in vivo, Sprague-Dawley rats; settings: 30 mg/kg intraduodenal; for ZGN-201 Conc. in Rat Plasma, individual animals: listed as ZGN-201
Protocol: A study was undertaken to investigate absorption of fumagillin from the small intestine. Five male Sprague-Dawley rats were fasted, and were then catheterized into the duodenum, 1.5 centimeters below the stomach. The stomachs of these rats were tied off so administration would bypass the stomach of each rat. Rats were then infused with 30 mg/kg of fumagillin and an equal volume of Trypan blue (Invitrogen). To determine absorption of fumagillin into the small intestine, blood was collected from the jugular vein of each rat at time points of 0 min., 5 min. (graphically illustrated as 0.083), 15 min. (graphically illustrated as 0.25), 30 min. (graphically illustrated as 0.5), 2 hrs, and 8 hrs.

[5] = tested on: leptin; assay: Plasma marker leptin in diet-induced obese mice (Example 10); type: in vivo, C57BL/6 mice; settings: 1 mg/kg/day oral gavage, end of study vs prior, FIG. 15
Protocol: Mice were divided into four groups, a diet-induced obese group administered fumagillin at 1 mg/kg/day (oral gavage as a solution in 0.25% DMSO), a Pair-fed group, a caloric restriction group, and a diet-induced obese group. For the diet-induced obese groups, C57BL/6 mice were maintained prior to and during the study on a diet containing 42% fat on a kilocalorie basis. Plasma markers were measured prior to and at the end of the study.

CO[C@@H]1[C@H](OC(=O)/C=C/C=C/C=C/C=C/C(=O)O)CC[C@]2(CO2)[C@H]1[C@@]1(C)O[C@@H]1CC=C(C)C [fumagillin]
binding to MetAP-2 in adipose tissue [1]: binds MetAP-2 in adipose tissue | neutrophil counts compared to vehicle-only mice ([2]; 1 mg/kg and 3 mg/kg oral): decreased | weight loss as a percentage of pre-study weight ([2]; 1 mg/kg/day oral gavage): 15% | weight loss as a percentage of pre-study weight ([2]; 3 mg/kg/day oral gavage): 18% | neutrophil counts compared to vehicle-only mice ([2]; 10 mg/kg and 30 mg/kg oral): increased | weight loss as a percentage of pre-study weight ([2]; 10 mg/kg/day oral gavage): 21% | weight loss as a percentage of pre-study weight ([2]; 30 mg/kg/day oral gavage): 33% | food consumption among dose groups ([2]; 30 mg/kg/day oral, 30 day period): consuming the least amount of food | food consumption vs vehicle-only and naive mice ([2]; 1-30 mg/kg/day oral, 30 day period): consumed less food | leukocytes, particularly lymphocytes (hematology) ([2]; fumagillin dose groups, oral): decrease | platelets ([2]; fumagillin dose groups, oral): No decrease | cholesterol levels ([2]; fumagillin treatment, oral): reductions | serum glucose levels ([2]; fumagillin treatment, oral): reductions | non-effective dose ([2]; oral gavage, weight loss, not identified, concluded): below 1 mg/kg/day | effect on lean body mass ([3]; 47 days, weight plateaued at weight of lean mice): without substantial reduction of lean body mass | average weight ([3]; day seventeen (from 40 g on day 1)): 32 g | average weight ([3]; maintained through day 47): approximately 32 g | amount of food consumed ([3]; throughout 47 days): 2.2 g/day | ZGN-201 Conc. in Rat Plasma, individual animals ([4]; male rats 1, 3, 4, 5, time point 0 hr): BQL (BQL: 1 ng/mL) | ZGN-201 Conc. in Rat Plasma, individual animals ([4]; male rats 1, 3, 4, 5, time point 0.083 hr): 30286.5 ng/mL and 30532.1 ng/mL and 31057 ng/mL | ZGN-201 Conc. in Rat Plasma, individual animals ([4]; male rats 1, 3, 4, 5, time point 0.25 hr): 9275.7 ng/mL and 9903.7 ng/mL and 13584.2 ng/mL | ZGN-201 Conc. in Rat Plasma, individual animals ([4]; male rats 1, 3, 4, 5, time point 0.5 hr): 1104.6 ng/mL and 2295 ng/mL and 1109.8 ng/mL and 1225.1 ng/mL | ZGN-201 Conc. in Rat Plasma, individual animals ([4]; male rats 1, 3, 4, 5, time point 2 hr): 95 ng/mL and 66.5 ng/mL and 79.3 ng/mL and 27.5 ng/mL | ZGN-201 Conc. in Rat Plasma, individual animals ([4]; male rats 1, 3, 4, 5, time point 8 hr): 9 ng/mL and 6.9 ng/mL and 6.8 ng/mL | absorption profile compared to absorption through the stomach ([4]; rats): large absorption profile in the small intestine | concentration at 0 hr ([4]; male, Sprague-Dawley, rat, plasma, other: intraduodenal, 30 mg/kg, male rats 1, 3, 4, 5, time point 0 hr, read-out: ZGN-201 Conc. in Rat Plasma, individual animals): 1 ng/mL | concentration at 0.083 hr ([4]; male, Sprague-Dawley, rat, plasma, other: intraduodenal, 30 mg/kg, male rats 1, 3, 4, 5, time point 0.083 hr, read-out: ZGN-201 Conc. in Rat Plasma, individual animals): 31400 ng/mL | concentration at 0.25 hr ([4]; male, Sprague-Dawley, rat, plasma, other: intraduodenal, 30 mg/kg, male rats 1, 3, 4, 5, time point 0.25 hr, read-out: ZGN-201 Conc. in Rat Plasma, individual animals): 7710 ng/mL | concentration at 8 hr ([4]; male, Sprague-Dawley, rat, plasma, other: intraduodenal, 30 mg/kg, male rats 1, 3, 4, 5, time point 8 hr, read-out: ZGN-201 Conc. in Rat Plasma, individual animals): 11.9 ng/mL | concentration at 0.083 hr ([4]; male, Sprague-Dawley, rat, plasma, other: intraduodenal, 30 mg/kg, male rats, time point 0.083 hr, read-out: ZGN-201 Conc. in Rat Plasma, Mean): 25100 ng/mL | concentration at 0.25 hr ([4]; male, Sprague-Dawley, rat, plasma, other: intraduodenal, 30 mg/kg, male rats, time point 0.25 hr, read-out: ZGN-201 Conc. in Rat Plasma, Mean): 9200 ng/mL | concentration at 0.5 hr ([4]; male, Sprague-Dawley, rat, plasma, other: intraduodenal, 30 mg/kg, male rats, time point 0.5 hr, read-out: ZGN-201 Conc. in Rat Plasma, Mean): 1730 ng/mL | concentration at 2 hr ([4]; male, Sprague-Dawley, rat, plasma, other: intraduodenal, 30 mg/kg, male rats, time point 2 hr, read-out: ZGN-201 Conc. in Rat Plasma, Mean): 506 ng/mL | concentration at 8 hr ([4]; male, Sprague-Dawley, rat, plasma, other: intraduodenal, 30 mg/kg, male rats, time point 8 hr, read-out: ZGN-201 Conc. in Rat Plasma, Mean): 20 ng/mL | concentration at 5 min ([4]; male, Sprague-Dawley, rat, plasma, other: intraduodenal, 30 mg/kg, rats, 5 min. from administration (time point 0.083), read-out: amount of absorption by the small intestine): 3000 ng/mL | leptin levels [5]: reduced
